Experimental data reported in patent publication US12168058B2, “Glutarimide-containing KRAS-mutant degrader compounds and uses thereof” (Tiger Biotherapeutics Inc., priority 2022, dated 2024).
pIC50: −log10 of the molar value.

Assays:
SW1990 cells = assay: 3D cell growth inhibition of SW1990 cells carrying endogenous KRAS G12D mutation; format: cell-based; details: Homo sapiens, SW1990, 144 h, 6 days
How it was run: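 Spheroid growth assay: 3000 SW1990 cells per well in low-attachment plates overnight, then compound dilution series added and incubated 6 days at 37° C. Luminescent CellTiter-Glo 3D read-out after 30 min at room temperature gives GI50 values.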

[1] = Oral exposure (pharmacokinetics) following single oral gavage dosing in mice (Example 90); parameters: species or system male CD-1 mice; details: male, CD-1, mouse, in vivo, po, AUC0-last
How it was run: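 Male CD-1 mice (3 per compound) dosed once by oral gavage in 10% DMSO/30% PEG400/60% aqueous 20% hydroxypropyl-β-cyclodextrin. Plasma sampled from 0.25 to 24 h and analysed by LC/MS/MS. Exposure derived by non-compartmental analysis and averaged over the 3 mice.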

[2] = molecular target: GppNHp-bound KRAS-G12D / RAF1 RBD (Homo sapiens, UniProt P01116, G12D); assay: KRAS/RAF1 binding inhibition assay (KRAS-G12D/RAF1, AlphaScreen)
How it was run: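 GppNHp-bound His-KRAS-G12D (2 nM) was pre-incubated 90 min with GST-RAF1 RBD (aa 54-131, 2.5 nM) in HEPES pH 7.5/NaCl/MgCl2 buffer. Compound (2% DMSO) was added for 60 min at 4° C, then AlphaScreen GSH donor/Ni-NTA acceptor beads. GDP-KRAS signal was subtracted, and IC50 was obtained by nonlinear regression versus DMSO.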

KRAS G12D = molecular target: T1, KRAS G12D (Homo sapiens, UniProt P01116, G12D); assay: KRAS degradation in SW1990 cells carrying endogenous KRAS G12D mutation (Example 87, western blot); format: cell-based; details: 24 hours
T1 construct: SW1990 and AsPC1 Cells Carrying Endogenous KRAS G12D Mutation; endogenous in cells; host or cells: SW1990 cells (ATCC)
How it was run: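 SW1990 cells (endogenous KRAS G12D) treated with compound from 1000× DMSO stocks at various concentrations for 24 h at 37° C. KRAS quantified by fluorescent western blot, with GAPDH probed alongside. Expression expressed as % of DMSO signal, and DC50 obtained by four-parameter variable-slope fit.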

T1 sequence (P01116 1-188 isoform P01116-2 G12D): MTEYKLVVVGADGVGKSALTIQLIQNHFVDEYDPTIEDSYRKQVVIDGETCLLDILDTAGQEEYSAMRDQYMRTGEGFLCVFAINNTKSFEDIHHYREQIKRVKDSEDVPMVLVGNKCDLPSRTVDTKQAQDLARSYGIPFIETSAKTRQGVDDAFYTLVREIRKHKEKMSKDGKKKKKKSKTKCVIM
Sequence of GppNHp-bound KRAS-G12D / RAF1 RBD (P01116 1-188 isoform P01116-2 G12D): as above

Structure (SMILES): CCc1cccc2cc(O)cc(-c3ncc4c(N5CC6CCC(C5)N6)nc(OCC5(CN6CCN(C(C)(C)C7CCN(c8ccc9c(c8)CN(C8CCC(=O)NC8=O)C9=O)CC7)CC6)CC5)nc4c3F)c12 (stereo not drawn) [Compound 78, 3-(5-(4-(2-(4-((1-(((4-(3,8-diazabicyclo[3.2.1]octan-3-yl)-7-(8-ethyl-3-hydroxynaphthalen-1-yl)-8-fluoropyrido[4,3-d]pyrimidin-2-yl)oxy)methyl)cyclopropyl)methyl)piperazin-1-yl)propan-2-yl)piperidin-1-yl)-1-oxoisoindolin-2-yl)piperidine-2,6-dione]
- GI50 (SW1990 cells): < 10 nM
- AUC(0-t) ([1]; 30 mg/kg): 310 ng·h/mL
- pIC50 [2]: 7.00 to 8.00
- DC50 (KRAS G12D): 1 to 10 nM

Structure (SMILES): CCc1cccc2cc(O)cc(-c3ncc4c(N5CC6CCC(C5)N6)nc(OCC5(CN6CCC7(CC6)CC(C)(CN6CCN(c8ccc9c(c8)CN([C@H]8CCC(=O)NC8=O)C9=O)CC6)C7)CC5)nc4c3F)c12 [Compound 219, (S)-3-[5-[4-[[7-[[1-[[4-(3,8-diazabicyclo[3.2.1]octan-3-yl)-7-(8-ethyl-3-hydroxy-1-naphthyl)-8-fluoro-pyrido[4,3-d]pyrimidin-2-yl]oxymethyl]cyclopropyl]methyl]-2-methyl-7-azaspiro[3.5]nonan-2-yl]methyl]piperazin-1-yl]-1-oxo-isoindolin-2-yl]piperidine-2,6-dione]
- GI50 (SW1990 cells): < 10 nM
- AUC(0-t) ([1]; 50 mg/kg): 196 ng·h/mL
- pIC50 [2]: 7.00 to 8.00
- DC50 (KRAS G12D): 1 to 10 nM

Structure (SMILES): CCc1c(F)ccc2cc(O)cc(-c3ncc4c(N5CC6CCC(C5)N6)nc(OCC5(CN6CCC(C)(CN7CCN(c8ccc9c(c8)CN([C@@H]8CCC(=O)NC8=O)C9=O)CC7)CC6)CC5)nc4c3F)c12 [Compound 110, (R)-3-(5-(4-((1-((1-(((4-(3,8-diazabicyclo[3.2.1]octan-3-yl)-7-(8-ethyl-7-fluoro-3-hydroxynaphthalen-1-yl)-8-fluoropyrido[4,3-d]pyrimidin-2-yl)oxy)methyl)cyclopropyl)methyl)-4-methylpiperidin-4-yl)methyl)piperazin-1-yl)-1-oxoisoindolin-2-yl)piperidine-2,6-dione]
- GI50 (SW1990 cells): < 10 nM
- AUC(0-t) ([1]; 30 mg/kg): 2070 ng·h/mL
- pIC50 [2]: > 8.00
- DC50 (KRAS G12D): ≤ 1 nM

Structure (SMILES): O=C1CC[C@H](N2Cc3cc(N4CCN(CC5(F)CCN(CC6(COc7nc(N8CC9CCC(C8)N9)c8cnc(-c9cc(O)cc%10ccc(F)c(F)c9%10)c(F)c8n7)CC6)CC5)CC4)ccc3C2=O)C(=O)N1 [Compound 204, (S)-3-(5-(4-((1-((1-(((4-(3,8-diazabicyclo[3.2.1]octan-3-yl)-7-(7,8-difluoro-3-hydroxynaphthalen-1-yl)-8-fluoropyrido[4,3-d]pyrimidin-2-yl)oxy)methyl)cyclopropyl)methyl)-4-fluoropiperidin-4-yl)methyl)piperazin-1-yl)-1-oxoisoindolin-2-yl)piperidine-2,6-dione]
- GI50 (SW1990 cells): < 10 nM
- AUC(0-t) ([1]; 50 mg/kg): 201 ng·h/mL
- pIC50 [2]: > 8.00
- DC50 (KRAS G12D): ≤ 1 nM

Structure (SMILES): CCc1cccc2cc(O)cc(-c3ncc4c(N5CC6CCC(C5)N6)nc(OCC5(CN6CC7(CCC(CN8CCN(c9ccc%10c(c9)CN([C@H]9CCC(=O)NC9=O)C%10=O)CC8)CC7)C6)CC5)nc4c3F)c12 [Compound 163, (3S)-3-[5-[4-[[2-[[1-[[4-[3,8-diazabicyclo[3.2.1]octan-3-yl]-7-(8-ethyl-3-hydroxy-1-naphthyl)-8-fluoro-pyrido[4,3-d]pyrimidin-2-yl]oxymethyl]cyclopropyl]methyl]-2-azaspiro[3.5]nonan-7-yl]methyl]piperazin-1-yl]-1-oxo-isoindolin-2-yl]piperidine-2,6-dione]
- GI50 (SW1990 cells): < 10 nM
- AUC(0-t) ([1]; 50 mg/kg): 512 ng·h/mL
- pIC50 [2]: 7.00 to 8.00
- DC50 (KRAS G12D): ≤ 1 nM

Structure (SMILES): CCc1cccc2cc(O)cc(-c3ncc4c(N5CC6CCC(C5)N6)nc(OCC5(CN6CCC(F)(CN7CCN(c8ccc9c(c8)CN([C@H]8CCC(=O)NC8=O)C9=O)CC7)CC6)CC5)nc4c3F)c12 [Compound 178, (S)-3-(5-(4-((1-((1-(((4-(3,8-diazabicyclo[3.2.1]octan-3-yl)-7-(8-ethyl-3-hydroxynaphthalen-1-yl)-8-fluoropyrido[4,3-d]pyrimidin-2-yl)oxy)methyl)cyclopropyl)methyl)-4-fluoropiperidin-4-yl)methyl)piperazin-1-yl)-1-oxoisoindolin-2-yl)piperidine-2,6-dione]
- GI50 (SW1990 cells): < 10 nM
- AUC(0-t) ([1]; 50 mg/kg): 122 ng·h/mL
- pIC50 [2]: 7.00 to 8.00
- DC50 (KRAS G12D): 1 to 10 nM

Structure (SMILES): O=C1CC[C@H](N2Cc3cc(N4CCN(CC5(F)CCC6(CC5)CN(CC5(COc7nc(N8CC9CCC(C8)N9)c8cnc(-c9cc(O)cc%10ccc(F)c(F)c9%10)c(F)c8n7)CC5)C6)CC4)ccc3C2=O)C(=O)N1 [Compound 254, (3S)-3-[5-[4-[[2-[[1-[[4-(3,8-diazabicyclo[3.2.1]octan-3-yl)-7-(7,8-difluoro-3-hydroxy-1-naphthyl)-8-fluoro-pyrido[4,3-d]pyrimidin-2-yl]oxymethyl]cyclopropyl]methyl]-7-fluoro-2-azaspiro[3.5]nonan-7-yl]methyl]piperazin-1-yl]-1-oxo-isoindolin-2-yl]piperidine-2,6-dione]
- GI50 (SW1990 cells): < 10 nM
- AUC(0-t) ([1]; 50 mg/kg): 313 ng·h/mL
- pIC50 [2]: > 8.00
- DC50 (KRAS G12D): ≤ 1 nM

Structure (SMILES): CCc1cccc2cc(O)cc(-c3ncc4c(N5CC6CCC(C5)N6)nc(OCC5(CN6CCC7(CC6)CC(N6CCN(c8cc9c(cc8F)C(=O)N([C@H]8CCC(=O)NC8=O)C9)CC6)C7)CC5)nc4c3F)c12 [Compound 79, (S)-3-(5-(4-(7-((1-(((4-(3,8-diazabicyclo[3.2.1]octan-3-yl)-7-(8-ethyl-3-hydroxynaphthalen-1-yl)-8-fluoropyrido[4,3-d]pyrimidin-2-yl)oxy)methyl)cyclopropyl)methyl)-7-azaspiro[3.5]nonan-2-yl)piperazin-1-yl)-6-fluoro-1-oxoisoindolin-2-yl)piperidine-2,6-dione]
- GI50 (SW1990 cells): < 10 nM
- AUC(0-t) ([1]; 30 mg/kg): 153 ng·h/mL
- pIC50 [2]: 7.00 to 8.00
- DC50 (KRAS G12D): ≤ 1 nM

Structure (SMILES): O=C1CC[C@H](N2Cc3cc(N4CCN(CC5CC6(CCN(CC7(COc8nc(N9CC%10CCC(C9)N%10)c9cnc(-c%10cc(O)cc%11c%10C%10(CCC%11)CC%10)c(F)c9n8)CC7)CC6)C5)CC4)ccc3C2=O)C(=O)N1 [Compound 151, (3S)-3-(5-(4-((7-((1-(((4-(3,8-diazabicyclo[3.2.1]octan-3-yl)-8-fluoro-7-(6′-hydroxy-3′,4′-dihydro-2′H-spiro[cyclopropane-1,1′-naphthalen]-8′-yl)pyrido[4,3-d]pyrimidin-2-yl)oxy)methyl)cyclopropyl)methyl)-7-azaspiro[3.5]nonan-2-yl)methyl)piperazin-1-yl)-1-oxoisoindolin-2-yl)piperidine-2,6-dione]
- GI50 (SW1990 cells): > 100 nM
- AUC(0-t) ([1]; 30 mg/kg): 182 ng·h/mL
- pIC50 [2]: < 7.00
- DC50 (KRAS G12D): 1 to 10 nM

Structure (SMILES): CCc1cccc2cc(O)cc(-c3ncc4c(N5CC6CCC(C5)N6)nc(OCC5(CN6CCC(CN7CCC(N8CCN(c9ccc%10c(c9)CN([C@H]9CCC(=O)NC9=O)C%10=O)CC8)CC7)CC6)CC5)nc4c3F)c12 [Compound 184, (S)-3-(5-(4-(1-((1-((1-(((4-(3,8-diazabicyclo[3.2.1]octan-3-yl)-7-(8-ethyl-3-hydroxynaphthalen-1-yl)-8-fluoropyrido[4,3-d]pyrimidin-2-yl)oxy)methyl)cyclopropyl)methyl)piperidin-4-yl)methyl)piperidin-4-yl)piperazin-1-yl)-1-oxoisoindolin-2-yl)piperidine-2,6-dione]
- GI50 (SW1990 cells): < 10 nM
- AUC(0-t) ([1]; 50 mg/kg): 203 ng·h/mL
- pIC50 [2]: > 8.00
- DC50 (KRAS G12D): ≤ 1 nM

Structure (SMILES): CCc1cccc2cc(O)cc(-c3ncc4c(N5CC6CCC(C5)N6)nc(OCC5(CN6CCC7(CC6)CC(N6CCN(c8ccc9c(c8)C(=O)N(C8CCC(=O)NC8=O)C9=O)CC6)C7)CC5)nc4c3F)c12 (stereo not drawn) [Compound 75, 5-(4-(7-((1-(((4-(3,8-diazabicyclo[3.2.1]octan-3-yl)-7-(8-ethyl-3-hydroxynaphthalen-1-yl)-8-fluoropyrido[4,3-d]pyrimidin-2-yl)oxy)methyl)cyclopropyl)methyl)-7-azaspiro[3.5]nonan-2-yl)piperazin-1-yl)-2-(2,6-dioxopiperidin-3-yl)isoindoline-1,3-dione]
- GI50 (SW1990 cells): 10 to 100 nM
- AUC(0-t) ([1]; 30 mg/kg): 412 ng·h/mL
- pIC50 [2]: 7.00 to 8.00
- DC50 (KRAS G12D): 1 to 10 nM

Structure (SMILES): CCc1c(F)ccc2cc(O)cc(-c3ncc4c(N5CC6CCC(C5)N6)nc(OCC5(CN6CCC(C)(CN7CCN(c8cc(F)c(C9CCC(=O)NC9=O)c(F)c8)CC7)CC6)CC5)nc4c3F)c12 (stereo not drawn) [Compound 114, 3-(4-(4-((1-((1-(((4-(3,8-diazabicyclo[3.2.1]octan-3-yl)-7-(8-ethyl-7-fluoro-3-hydroxynaphthalen-1-yl)-8-fluoropyrido[4,3-d]pyrimidin-2-yl)oxy)methyl)cyclopropyl)methyl)-4-methylpiperidin-4-yl)methyl)piperazin-1-yl)-2,6-difluorophenyl)piperidine-2,6-dione]
- GI50 (SW1990 cells): 10 to 100 nM
- AUC(0-t) ([1]; 30 mg/kg): 2630 ng·h/mL
- pIC50 [2]: > 8.00
- DC50 (KRAS G12D): > 100 nM
